Results as given in ChEMBL document CHEMBL4393673, “Design, synthesis and biological evaluation of pyridine-chalcone derivatives as novel microtubule-destabilizing agents” (Eur J Med Chem, 2019).

Legend:
H22 [1] = test: Antitumor activity against mouse H22 cells allografted in ICR mouse assessed as reduction in tumour weight at 20 mg/kg, iv administered once per day for 21 days relative to control; assay type: functional; conditions: 504 h
H22 [2] = test: Antitumor activity against mouse H22 cells allografted in ICR mouse assessed as reduction in tumour weight at 6 mg/kg, iv administered once per 2 days for 21 days relative to control; assay type: functional
[3] = Toxicity in ICR mouse allografted with mouse H22 cells assessed as body weight loss at 6 mg/kg, iv administered once per 2 days for 21 days; assay type: organism-based; conditions: in vivo
Tubulin = test: Inhibition of tubulin polymerization (unknown origin) in presence of GTP measured after 60 mins by spectrophotometric method; assay type: protein-complex assay, Homo sapiens
Tubulin (Sus scrofa) [4] = biological target: T1, Tubulin (Sus scrofa) (UniProt P02554+P02550); test: Inhibition of [3H]colchicine binding to biotinylated porcine tubulin at 5 uM in presence of GTP after 2 hrs by scintillation proximity assay relative to control; assay type: protein assay
Tubulin (Sus scrofa) [5] = biological target: T1, Tubulin (Sus scrofa); test: Inhibition of [3H]colchicine binding to biotinylated porcine tubulin at 1 uM in presence of GTP after 2 hrs by scintillation proximity assay relative to control; assay type: protein assay
K562 = test: Antiproliferative activity against human K562 cells assessed as reduction in cell viability after 72 hrs by MTT assay; assay type: functional, cell-based; conditions: K562, 72 h
[6] = Antiproliferative activity against […] cells assessed as reduction in cell viability after 72 hrs by MTT assay; assay type: functional, cell-based; conditions: H22, 72 h
L02 = test: cells; conditions: Homo sapiens, L02, 72 h
Description: Cytotoxicity against human LO2 cells assessed as reduction in cell viability after 72 hrs by MTT assay

Tubulin (Homo sapiens) [7] = biological target: T2, Tubulin (Homo sapiens) (UniProt P68371+Q9H4B7+P0DPH7+P68366+Q13509+Q71U36+P04350+Q3ZCM7+P07437+P68363+Q9BQE3+Q6PEY2+Q13885+Q9BVA1+Q9BUF5); test: Inhibition of tubulin polymerization in human MDA-MB-231 cells assessed as disruption of cytosolic microtubule networks after 24 hrs by DAPI staining based immunofluorescence microscopic method; assay type: cell-based
Tubulin (Homo sapiens) [8] = biological target: T2, Tubulin (Homo sapiens); test: Inhibition of tubulin polymerization in human K562 cells assessed as disruption of cytosolic microtubule networks after 24 hrs by DAPI staining based immunofluorescence microscopic method; assay type: cell-based
KB = test: Antiproliferative activity against human KB cells assessed as reduction in cell viability after 72 hrs by MTT assay; assay type: functional, cell-based
HCT-8 = test: Antiproliferative activity against human HCT8 cells assessed as reduction in cell viability after 72 hrs by MTT assay; assay type: functional, cell-based; conditions: HCT-8, 72 h
MDA-MB-231 = test: cells; conditions: Homo sapiens, MDA-MB-231, 72 h
Description: Antiproliferative activity against human MDA-MB-231 cells assessed as reduction in cell viability after 72 hrs by MTT assay

T1 sequence (P02550 whole entry, looked up): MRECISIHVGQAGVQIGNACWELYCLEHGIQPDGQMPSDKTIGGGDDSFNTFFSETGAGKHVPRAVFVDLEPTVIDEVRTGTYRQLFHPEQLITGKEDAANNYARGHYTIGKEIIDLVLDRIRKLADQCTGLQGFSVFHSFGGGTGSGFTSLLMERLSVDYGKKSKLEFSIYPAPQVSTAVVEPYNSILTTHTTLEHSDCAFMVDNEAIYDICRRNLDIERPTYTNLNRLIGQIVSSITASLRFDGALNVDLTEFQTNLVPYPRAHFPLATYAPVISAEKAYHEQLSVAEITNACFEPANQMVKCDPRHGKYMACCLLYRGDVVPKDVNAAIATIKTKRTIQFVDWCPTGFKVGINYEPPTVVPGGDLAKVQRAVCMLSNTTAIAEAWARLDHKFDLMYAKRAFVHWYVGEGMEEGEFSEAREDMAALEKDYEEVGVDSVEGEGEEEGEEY
T1 sequence (P02554 whole entry, looked up): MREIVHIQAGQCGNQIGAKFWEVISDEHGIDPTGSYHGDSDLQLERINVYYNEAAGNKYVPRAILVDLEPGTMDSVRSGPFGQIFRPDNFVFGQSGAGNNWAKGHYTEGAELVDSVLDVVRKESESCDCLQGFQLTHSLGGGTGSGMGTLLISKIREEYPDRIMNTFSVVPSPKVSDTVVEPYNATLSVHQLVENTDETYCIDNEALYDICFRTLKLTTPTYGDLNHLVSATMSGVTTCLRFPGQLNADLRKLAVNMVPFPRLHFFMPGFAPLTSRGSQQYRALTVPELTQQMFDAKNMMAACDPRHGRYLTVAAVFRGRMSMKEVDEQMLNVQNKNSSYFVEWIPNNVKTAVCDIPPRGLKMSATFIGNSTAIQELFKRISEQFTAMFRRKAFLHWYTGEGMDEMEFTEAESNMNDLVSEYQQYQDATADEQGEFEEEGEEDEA

SMILES | inhibition in vivo at 20 mg/kg (H22 [1]) | IC50 (Tubulin) | inhibition (Tubulin (Sus scrofa) [4]) | inhibition (Tubulin (Sus scrofa) [5]) | IC50 [6] | other results
COc1ccc(/C=C\c2cc(OC)c(OC)c(OC)c2)cc1OP(=O)(O)O [FOSBRETABULIN DISODIUM] | 62.7% |  |  |  |  | 
CC(=O)O[C@H]1C(=O)[C@@]2(C)[C@H]([C@H](OC(=O)c3ccccc3)[C@]3(O)C[C@H](OC(=O)[C@H](O)[C@@H](NC(=O)c4ccccc4)c4ccccc4)C(C)=C1C3(C)C)[C@]1(OC(C)=O)CO[C@@H]1C[C@@H]2O [PACLITAXEL] |  |  |  |  |  | inhibition in vivo at 6 mg/kg (H22 [2]): 72.7%; Activity [3]: Toxic
COc1ccc(/C=C/C(=O)c2cc(OC)c(OC)c(OC)c2)cc1O |  | 3.05 µM | 78.3% | 70.2% | 0.132 µM | IC50 (K562): 0.068 µM; IC50 (L02): 0.421 µM
COc1cc(C(=O)/C(C)=C/c2ccc(OC)c(O)c2)cc(OC)n1 |  | 2.08 µM | 87.9% | 75.1% |  | Activity (Tubulin (Homo sapiens) [7]): Dose-dependent effect; Activity (Tubulin (Homo sapiens) [8]): Dose-dependent effect
COc1ccc(/C=C\c2cc(OC)c(OC)c(OC)c2)cc1O [COMBRETASTATIN A4] | 50.9% |  |  |  | 0.008 µM | IC50 (KB): 0.011 µM; IC50 (HCT-8): 0.01 µM; IC50 (MDA-MB-231): 0.01 µM
